From US5624923A, “Tricyclic diazepine vasopressin antagonists and oxytocin antagonists” (priority 1995, dated 1997)
Values joined by “and” are separate entries in the source; they are usually repeats but may differ in a detail not shown here. Identical values can stand only once. Each block holds one compound with its values, some of them ahead of it.

Tests used:
[1] = target: T1, oxytocin receptors (Rattus norvegicus, UniProt P70536); test: Oxytocin Receptor Binding; details: for IC50: 1.0 nM [3H]oxytocin; for inhibition at 10 µM: [3H]oxytocin
T1 construct: The uteri are dissected out, cleaned of fat and connective tissues; from tissue; host or cells: uterus of DES-treated female Sprague-Dawley rats
T1 sequence (P70536 1-388): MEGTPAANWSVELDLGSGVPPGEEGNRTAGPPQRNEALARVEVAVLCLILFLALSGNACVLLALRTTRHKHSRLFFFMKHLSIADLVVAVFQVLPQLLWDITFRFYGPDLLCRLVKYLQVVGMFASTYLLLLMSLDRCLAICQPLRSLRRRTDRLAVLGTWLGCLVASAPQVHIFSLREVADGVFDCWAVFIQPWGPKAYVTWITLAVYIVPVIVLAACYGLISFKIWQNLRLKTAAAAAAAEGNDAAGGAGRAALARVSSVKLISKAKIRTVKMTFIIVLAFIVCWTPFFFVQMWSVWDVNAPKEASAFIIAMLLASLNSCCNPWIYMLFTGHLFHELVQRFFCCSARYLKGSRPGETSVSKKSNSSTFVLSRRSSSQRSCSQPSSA
Outline: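 Membranes from uteri of DES-primed (0.3 mg/kg i.m., 18 h) female Sprague-Dawley rats. Competition with 1.0 nM [3H]oxytocin in 50 mM Tris.HCl pH 7.4, 5 mM MgCl2 with protease inhibitors, 60 min at 22 °C, filtration read-out. Non-specific binding with 1.0 uM unlabeled OT; IC50 calculated.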

[2] = test system: Vasopressin V1; test: Vasopressin V1 Antagonist Activity in Conscious Rats (vasopressin vasopressor response); assay type: in vivo, rat; parameters: Average Change: unit not given here; details: for % Inhibition / Average Change: SHR
Outline: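 Conscious rats are restrained supine, and under local 2% procaine a PE 10/20 cannula is passed through the ventral caudal tail artery into the lower abdominal aorta. The caudal vein is cannulated for intravenous dosing. Blood pressure is recorded with a Statham P23Db transducer, and vasopressin injections are repeated after compound dosing. Percent antagonism is calculated against the pre-drug vasopressor response taken as 100%.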

[3] = target: T2, Rat Kidney Medullary V2 Receptors (Rattus norvegicus, UniProt Q00788); test: Binding Assay to Rat Kidney Medullary V2 Receptors; details: rat kidney medulla membranes; read-out: V2 IC50
T2 construct: Medullary tissues from rat kidneys are dissected out; from tissue; host or cells: rat kidney medulla membranes
T2 sequence (Q00788 whole entry): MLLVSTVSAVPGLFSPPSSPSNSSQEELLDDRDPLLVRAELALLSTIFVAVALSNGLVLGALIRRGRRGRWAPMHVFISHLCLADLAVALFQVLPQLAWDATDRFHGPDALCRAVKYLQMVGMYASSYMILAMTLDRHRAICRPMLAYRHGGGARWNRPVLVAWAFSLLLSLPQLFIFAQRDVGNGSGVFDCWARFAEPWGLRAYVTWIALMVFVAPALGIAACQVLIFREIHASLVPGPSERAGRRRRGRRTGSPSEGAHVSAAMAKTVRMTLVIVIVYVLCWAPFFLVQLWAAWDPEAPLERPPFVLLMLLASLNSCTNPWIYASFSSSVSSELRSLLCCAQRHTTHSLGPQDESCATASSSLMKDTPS
Outline: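 Membranes were prepared from rat kidney medulla and stored in 50.0 mM Tris-HCl pH 7.4 with 0.2% BSA and 0.1 mM PMSF. Radioligand competition ran 120 min at bench temperature, with 1.0 μM unlabeled ligand defining nonspecific binding. Compounds were added in 50% DMSO; filtration, tritium scintillation counting, IC50 from competition analysis.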

[4] = 10 mg/kg p.o., VAS 0.01 i.u./kg, 30 min
[5] = 10 mg/kg p.o., VAS 0.01 i.u./kg, 60 min
[6] = 10 mg/kg p.o., VAS 0.01 i.u./kg, 90 min
[7] = 10 mg/kg p.o., VAS 0.01 i.u./kg, 120 min
[8] = 10 mg/kg p.o., VAS 0.01 i.u./kg, 180 min
[9] = 10 mg/kg p.o., VAS 0.01 i.u./kg, 240 min
[10] = 10 mg/kg p.o., VAS 0.02 i.u./kg, 30 min
[11] = 10 mg/kg p.o., VAS 0.02 i.u./kg, 60 min
[12] = 10 mg/kg p.o., VAS 0.02 i.u./kg, 90 min
[13] = 10 mg/kg p.o., VAS 0.02 i.u./kg, 120 min
[14] = 10 mg/kg p.o., VAS 0.02 i.u./kg, 180 min
[15] = 10 mg/kg p.o., VAS 0.02 i.u./kg, 240 min
[16] = 3 mg/kg i.v., VAS 0.01 i.u./kg, 30 min
[17] = 3 mg/kg i.v., VAS 0.01 i.u./kg, 60 min
[18] = 3 mg/kg i.v., VAS 0.01 i.u./kg, 90 min
[19] = 3 mg/kg i.v., VAS 0.01 i.u./kg, 120 min
[20] = 3 mg/kg i.v., VAS 0.01 i.u./kg, 180 min
[21] = 3 mg/kg i.v., VAS 0.01 i.u./kg, 240 min
[22] = 3 mg/kg i.v., VAS 0.01 i.u./kg, 300 min
[23] = 3 mg/kg i.v., VAS 0.02 i.u./kg, 30 min
[24] = 3 mg/kg i.v., VAS 0.02 i.u./kg, 60 min
[25] = 3 mg/kg i.v., VAS 0.02 i.u./kg, 90 min
[26] = 3 mg/kg i.v., VAS 0.02 i.u./kg, 120 min
[27] = 3 mg/kg i.v., VAS 0.02 i.u./kg, 300 min
[28] = 10 mg/kg p.o., VAS 0.01 i.u./kg, 300 min
[29] = 10 mg/kg p.o., VAS 0.02 i.u./kg, 300 min
[30] = 30 mg/kg p.o., VAS 0.01 i.u./kg, 30 min
[31] = 30 mg/kg p.o., VAS 0.01 i.u./kg, 60 min
[32] = 30 mg/kg p.o., VAS 0.01 i.u./kg, 90 min
[33] = 30 mg/kg p.o., VAS 0.01 i.u./kg, 120 min
[34] = 30 mg/kg p.o., VAS 0.01 i.u./kg, 180 min
[35] = 30 mg/kg p.o., VAS 0.01 i.u./kg, 240 min
[36] = 30 mg/kg p.o., VAS 0.02 i.u./kg, 30 min
[37] = 30 mg/kg p.o., VAS 0.02 i.u./kg, 60 min
[38] = 30 mg/kg p.o., VAS 0.02 i.u./kg, 90 min
[39] = 30 mg/kg p.o., VAS 0.02 i.u./kg, 120 min
[40] = 30 mg/kg p.o., VAS 0.02 i.u./kg, 180 min
[41] = 30 mg/kg p.o., VAS 0.02 i.u./kg, 240 min

- IC50 [1]: 1.2 µM
- inhibition at 10 µM [1]: 87%
- IC50 [3]: 0.005 µM
Structure (SMILES): O=C(Nc1ccc(C(=O)N2Cc3ccnn3Cc3ccccc32)cc1)c1ccc(Cl)cc1Cl [Example 217, N-[4-(4H-Pyrazolo[5,1-c][1,4]benzo-diazepin-5(10H)-ylcarbonyl)phenyl]-2,4-dichlorobenzamide]
- Max. % Inhibition ([2]; 30 mg/kg i.v.): 57%
- Time (of max. % inhibition) ([2]; 30 mg/kg i.v.): 90 min

- IC50 [1]: 4 µM
- inhibition at 10 µM [1]: 64%
- IC50 [3]: 0.016 µM
Structure (SMILES): Cc1ccccc1C(=O)Nc1ccc(C(=O)N2Cc3ccnn3Cc3ccccc32)cc1 [Example 210, N-[4-(4H-Pyrazolo[5,1-c][1,4]benzodiazepin-5(10H)-ylcarbonyl)phenyl]-2-methylbenzamide]
- Max. % Inhibition ([2]; 10 mg/kg i.v.): 78%
- Time (of max. % inhibition) ([2]; 10 mg/kg i.v.): 90 min

- IC50 [1]: 0.66 µM
- inhibition at 10 µM [1]: 98%
- IC50 [3]: 0.014 µM
Structure (SMILES): O=C(Nc1ccc(C(=O)N2Cc3cccn3Cc3ccccc32)cc1)c1cc(Cl)ccc1Cl [Example 4, N-[4-(5H-pyrrolo[2,1-c][1,4]benzodiazepin-10(11H)-ylcarbonyl)phenyl]-2,5-dichlorobenzamide]
- % Inhibition [2, 4]: 6%
- Average Change [2, 4]: 44.5
- % Inhibition [2, 5]: 36%
- Average Change [2, 5]: 30.5
- % Inhibition [2, 6]: 19%
- Average Change [2, 6]: 38.5
- % Inhibition [2, 7]: 32%
- Average Change [2, 7]: 32.5
- % Inhibition [2, 8]: 25%
- Average Change [2, 8]: 35.5
- % Inhibition [2, 9]: 39%
- Average Change [2, 9]: 29
- % Inhibition [2, 10]: 27%
- Average Change [2, 10]: 36
- % Inhibition [2, 11]: 10%
- Average Change [2, 11]: 44.5
- % Inhibition [2, 12]: -5%
- Average Change [2, 12]: 52
- % Inhibition [2, 13]: -2%
- Average Change [2, 13]: 50.5
- % Inhibition [2, 14]: 11%
- Average Change [2, 14]: 44
- % Inhibition [2, 15]: 47%
- Average Change [2, 15]: 26

- IC50 [1]: 0.36 µM
- inhibition at 10 µM [1]: 90%
- IC50 [3]: 0.004 µM
Structure (SMILES): Cc1ccccc1C(=O)Nc1ccc(C(=O)N2Cc3cccn3Cc3ccccc32)cc1 [Example 3, 2-Methyl-N-[4-(5H-pyrrolo[2,1-c][1,4]-benzodiazepin-10(11H)-ylcarbonyl)phenyl]benzamide]
- % Inhibition [2, 16]: 70% and 69%
- Average Change [2, 16]: 15
- % Inhibition [2, 17]: 75% and 57%
- Average Change [2, 17]: 12.5 and 21
- % Inhibition [2, 18]: 65% and 76%
- Average Change [2, 18]: 17.5 and 12
- % Inhibition [2, 19]: 60% and 58%
- Average Change [2, 19]: 20 and 20.5
- % Inhibition [2, 20]: 40% and 57%
- Average Change [2, 20]: 30 and 21
- % Inhibition [2, 21]: 20% and 35%
- Average Change [2, 21]: 40 and 32
- % Inhibition [2, 22]: 61%
- Average Change [2, 22]: 19
- % Inhibition [2, 23]: 57%
- Average Change [2, 23]: 23.5 and 22
- % Inhibition [2, 24]: 68% and 44%
- Average Change [2, 24]: 17.5 and 29
- % Inhibition [2, 25]: 73% and 46%
- Average Change [2, 25]: 15 and 28
- % Inhibition [2, 26]: 41% and 64%
- Average Change [2, 26]: 32.5 and 18.5
- Average Change ([2]; 3 mg/kg i.v., VAS 0.02 i.u./kg, 180 min): 55 and 28.5
- Average Change ([2]; 3 mg/kg i.v., VAS 0.02 i.u./kg, 240 min): 52.5 and 27.5
- % Inhibition [2, 27]: 41%
- Average Change [2, 27]: 30.5
- % Inhibition [2, 4]: 78% and 71% and 73%
- Average Change [2, 4]: 12.5 and 10 and 11
- % Inhibition [2, 5]: 70% and 71%
- Average Change [2, 5]: 17.5 and 10.5 and 11.5
- % Inhibition [2, 6]: 81% and 70%
- % Inhibition [2, 7]: 74% and 59% and 69%
- Average Change [2, 7]: 15 and 14.5 and 12.5
- % Inhibition [2, 8]: 65% and 77% and 61%
- % Inhibition [2, 9]: 61% and 76% and 51%
- % Inhibition [2, 28]: 59%
- Average Change [2, 28]: 16.5
- % Inhibition [2, 10]: 65% and 66% and 70%
- Average Change [2, 10]: 17.5 and 18.5 and 16
- % Inhibition [2, 11]: 55% and 66% and 58%
- Average Change [2, 11]: 22.5 and 18.5
- % Inhibition [2, 29]: 56%
- Average Change [2, 29]: 24
- % Inhibition [2, 30]: 72%
- Average Change [2, 30]: 15
- % Inhibition [2, 31]: 57%
- Average Change [2, 31]: 22.5
- % Inhibition [2, 32]: 81%
- Average Change [2, 32]: 10
- % Inhibition [2, 33]: 81%
- Average Change [2, 33]: 10
- % Inhibition [2, 34]: 81%
- Average Change [2, 34]: 10
- % Inhibition [2, 35]: 91%
- Average Change [2, 35]: 5
- % Inhibition [2, 36]: 62%
- Average Change [2, 36]: 20
- % Inhibition [2, 37]: 57%
- Average Change [2, 37]: 22.5
- % Inhibition [2, 38]: 62%
- Average Change [2, 38]: 20
- % Inhibition [2, 39]: 76%
- Average Change [2, 39]: 12.5
- % Inhibition [2, 40]: 67%
- Average Change [2, 40]: 17.5
- % Inhibition [2, 41]: 81%
- Average Change [2, 41]: 10
